Measured values reported in ChEMBL document CHEMBL5316342, “Structure-Based Design of Potent Iminosugar Inhibitors of Endoplasmic Reticulum α-Glucosidase I with Anti-SARS-CoV-2 Activity” (J Med Chem, 2023).
Active and inactive are the calls of the source. No cut-off for these calls is given here.

How the values were obtained:
[1] = Inhibition of C-terminal his6-tagged full length recombinant mouse Endoplasmic reticulum alpha-glucosidase 1 (59 to 834 residues) expressed in FreeStyle 293-F cells using trisaccharide as substrate preincubated for 60 mins followed by substrate addition and measured for 90 mins by Amplex Red assay
[2] = Cytotoxicity against human A549-ACE2 cells infected with SARS-CoV-2 USA-WA1/2020 assessed as reduction in cell viability measured for 3 days by WST-1 assay; assay type: toxicity, cell-based; settings: a549-ace2, 72 h, time 3 day
[3] = Cytotoxicity against human A549-ACE2 cells infected with SARS-CoV-2 USA-WA1/2020 assessed as reduction in cell viability at 25 uM measured for 3 days by WST-1 assay relative to control; assay type: toxicity, cell-based; settings: a549-ace2, 72 h, time 3 day
[4] = Inhibition of mouse recombinant alpha-glucosidase using 4-methylumbelliferyl-[…]-D-glucopyranoside as substrate preincubated for 60 mins followed by substrate addition and measured after 30 mins by fluorescence based analysis
SARS-CoV-2 [5] = test: Antiviral activity against SARS-CoV-2 USA-WA1/2020 infected in human A549-ACE2 cells assessed as reduction in viral burden measured upto 4 days by viral plaque assay; assay type: functional, organism-based; settings: Severe acute respiratory syndrome coronavirus 2, USA-WA1/2020, A549-ACE2, 96 h
SARS-CoV-2 [6] = test: Antiviral activity against SARS-CoV-2 USA-WA1/2020 infected in human A549-ACE2 cells assessed as maximum reduction in viral burden up to 100 uM measured upto 4 days by viral plaque assay; assay type: functional; settings: Severe acute respiratory syndrome coronavirus 2, time <= 4.0 day

SMILES | IC50 [1] | CC50 [2] | Activity [3] | IC50 [4] | EC50 (SARS-CoV-2 [5]) | Activity (SARS-CoV-2 [6])
CS(=O)(=O)c1cc(NCc2ccc(CN3C[C@H](O)[C@@H](O)[C@H](O)[C@H]3CO)cc2)cc(-c2cccnn2)c1 | 21 nM | > 100 µM | 99.2% | 114 nM | – | –
CCCCN[C@H]1C[C@](O)(CO)[C@@H](O)[C@H](O)[C@H]1O | 29500 nM | – | – | – | – | –
CS(=O)(=O)c1cc(Br)cc(NCc2cccc(CN3C[C@H](O)[C@@H](O)[C@H](O)[C@H]3CO)c2)c1 | 19 nM | > 100 µM | 100% | 7920 nM | – | –
Cc1nc2cc(-c3ncccn3)ccc2n1CCCCCCN1C[C@H](O)[C@@H](O)[C@H](O)[C@H]1CO | 78 nM | > 100 µM | 80.8% | 194 nM | 12200 nM | –
N#Cc1cc(NCc2cccc(CN3C[C@H](O)[C@@H](O)[C@H](O)[C@H]3CO)c2)cc(C2=COCCO2)c1 | 3 nM | > 100 µM | 100% | 2670 nM | – | –
OC[C@@H]1[C@@H](O)[C@H](O)[C@@H](O)CN1CCc1ccc(CCNc2cc(O)cc(-c3cccnn3)c2)cc1 | 211 nM | > 100 µM | 93.5% | < 1 nM | – | –
COCCCCCCCCCN1C[C@H](O)[C@@H](O)[C@H](O)[C@H]1CO.Cl | – | > 100 µM | 100% | – | 3320 nM | –
O=[N+]([O-])c1cc(-c2ccccc2)ccc1NCCCCCCN1C[C@H](O)[C@@H](O)[C@H](O)[C@H]1CO | 57 nM | > 100 µM | 100% | < 1 nM | 420 nM | –
[N-]=[N+]=Nc1ccc(NCCOC(=O)NCCN[C@H]2C[C@](O)(CO)[C@@H](O)[C@H](O)[C@H]2O)c([N+](=O)[O-])c1 | 1130 nM | – | – | – | – | –
O=[N+]([O-])c1cc(-c2noc(C3CCC3)n2)ccc1NCCCCCCN1C[C@H](O)[C@@H](O)[C@H](O)[C@H]1CO | 11 nM | 40.7 µM | 100% | < 1 nM | 720 nM | –
Cc1cc(NCc2cccc(CN3C[C@H](O)[C@@H](O)[C@H](O)[C@H]3CO)c2)cc(-c2ncccn2)c1 | 44 nM | – | 52.9% | 66500 nM | – | inactive
Cc1cc(NCc2cccc(CN3C[C@H](O)[C@@H](O)[C@H](O)[C@H]3CO)n2)cc(-c2ccc[nH]2)c1 | 966 nM | – | 54.1% | > 100000 nM | – | inactive
O=[N+]([O-])c1cc(-n2cccn2)ccc1NCCCCCCN[C@H]1C[C@](O)(CO)[C@@H](O)[C@H](O)[C@H]1O | – | > 100 µM | 85.6% | – | – | –
O=[N+]([O-])c1cc(N2C3CCC2COC3)ccc1NCCCCCCN1C[C@H](O)[C@@H](O)[C@H](O)[C@H]1CO | 52 nM | > 100 µM | 98.9% | 30 nM | 1610 nM | –
O=[N+]([O-])c1cc(-n2nccn2)ccc1NCCCCCCN[C@H]1C[C@](O)(CO)[C@@H](O)[C@H](O)[C@H]1O | 47 nM | – | – | < 1 nM | – | –
Cc1nc(-c2ccc(NCCCCCCN3C[C@H](O)[C@@H](O)[C@H](O)[C@H]3CO)c([N+](=O)[O-])c2)no1 | 99 nM | > 100 µM | 100% | 3 nM | 440 nM | –

SMILES | IC50 [1] | CC50 [2] | Activity [3] | IC50 [4] | EC50 (SARS-CoV-2 [5]) | Activity (SARS-CoV-2 [6])
C[C@@H]1CN(c2ccc(NCc3ccc(CN4C[C@H](O)[C@@H](O)[C@H](O)[C@H]4CO)cc3)c([N+](=O)[O-])c2)C[C@H](C)O1 | 1 nM | – | 51.5% | 4 nM | – | inactive
[N-]=[N+]=Nc1ccc(NCCCCCCN2C[C@H](O)[C@@H](O)[C@H](O)[C@H]2CO)c([N+](=O)[O-])c1 | 155 nM | > 100 µM | 100% | 10 nM | 580 nM | –
O=[N+]([O-])c1cc(-c2ccnc(N3CCOCC3)n2)ccc1NCCCCCCN1C[C@H](O)[C@@H](O)[C@H](O)[C@H]1CO | < 1 nM | – | 58.6% | < 1 nM | – | inactive
O=[N+]([O-])c1cc(NCCCCCCN2C[C@H](O)[C@@H](O)[C@H](O)[C@H]2CO)cc(-c2ccncc2)c1 | 1 nM | 54.2 µM | 87.2% | < 1 nM | – | –
OC[C@@H]1[C@@H](O)[C@H](O)[C@@H](O)CN1CCc1ccc(CCNc2cc(O)cc(-c3ncon3)c2)cc1 | 1010 nM | > 100 µM | 83.8% | 295 nM | – | –
[N-]=[N+]=Nc1ccc(NCCc2cncc(CCN3C[C@H](O)[C@@H](O)[C@H](O)[C@H]3CO)n2)c([N+](=O)[O-])c1 | 94 nM | – | 38.8% | 3 nM | – | inactive
OC[C@@H]1[C@@H](O)[C@H](O)[C@@H](O)CN1Cc1ccc(CNc2ccc(N3CCOCC3)cc2)cc1 | 122 nM | > 100 µM | 97.6% | 1580 nM | – | –
CS(=O)(=O)c1cc(NCc2cccc(CN3C[C@H](O)[C@@H](O)[C@H](O)[C@H]3CO)c2)cc(-c2ccccc2)c1 | 17 nM | – | 40.8% | 4600 nM | – | inactive
COCCCCCCCCCN1C[C@H](O)[C@@H](O)[C@H](O)[C@H]1CO | 537 nM | – | – | 68 nM | – | –
O=[N+]([O-])c1cc(N2[C@@H]3CC[C@H]2COC3)ccc1NCc1ccc(CN2C[C@H](O)[C@@H](O)[C@H](O)[C@H]2CO)cc1 | < 1 nM | 39.8 µM | 75% | < 1 nM | – | –
O=[N+]([O-])c1cc(N2CCOCC2)ccc1NCc1cccc(CN2C[C@H](O)[C@@H](O)[C@H](O)[C@H]2CO)c1 | 99 nM | – | 36.5% | 12800 nM | – | inactive
Cc1cc(NCc2ccc(CN3C[C@H](O)[C@@H](O)[C@H](O)[C@H]3CO)cc2)cc(-c2cccnn2)c1 | 73 nM | – | 73.7% | 179 nM | – | inactive
OC[C@@H]1[C@@H](O)[C@H](O)[C@@H](O)CN1CCCCCCNc1cc(-c2cccnn2)cc(C2CC2)c1 | 103 nM | > 100 µM | 100% | 12 nM | 7860 nM | –
OC[C@@H]1[C@@H](O)[C@H](O)[C@@H](O)CN1CCCCCCCCc1ccco1 | 139 nM | 35 µM | 95.7% | 35 nM | 3360 nM | –
Cc1cc(-c2ccco2)ccc1NCc1ccc(CN2C[C@H](O)[C@@H](O)[C@H](O)[C@H]2CO)cc1 | < 1 nM | 29.5 µM | 82.6% | 318 nM | > 25000 nM | –
COCCc1ccc(CCCCCN2C[C@H](O)[C@@H](O)[C@H](O)[C@H]2CO)cc1 | 1160 nM | – | – | 76 nM | – | –
